Target: T1, human Fatty Acid Synthase (Homo sapiens, UniProt P49327)
T1 construct: made in house
Assay: Human FAS enzyme assay (decrease in NADPH fluorescence)
Type: biochemical
Conditions: % inhibition at a concentration of 100 μmolar
How it was run: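 In-house human FAS was preincubated with compound and NADPH for 15 min at room temperature in 0.1 M Tris pH 7.5 with EDTA, glutathione and BSA. Malonyl CoA and acetyl CoA (500 μM and 150 μM in the added mix) were then added for 60 min. IC50 came from time-zero-subtracted NADPH fluorescence (340/460 nm).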

T1 sequence (P49327 whole entry): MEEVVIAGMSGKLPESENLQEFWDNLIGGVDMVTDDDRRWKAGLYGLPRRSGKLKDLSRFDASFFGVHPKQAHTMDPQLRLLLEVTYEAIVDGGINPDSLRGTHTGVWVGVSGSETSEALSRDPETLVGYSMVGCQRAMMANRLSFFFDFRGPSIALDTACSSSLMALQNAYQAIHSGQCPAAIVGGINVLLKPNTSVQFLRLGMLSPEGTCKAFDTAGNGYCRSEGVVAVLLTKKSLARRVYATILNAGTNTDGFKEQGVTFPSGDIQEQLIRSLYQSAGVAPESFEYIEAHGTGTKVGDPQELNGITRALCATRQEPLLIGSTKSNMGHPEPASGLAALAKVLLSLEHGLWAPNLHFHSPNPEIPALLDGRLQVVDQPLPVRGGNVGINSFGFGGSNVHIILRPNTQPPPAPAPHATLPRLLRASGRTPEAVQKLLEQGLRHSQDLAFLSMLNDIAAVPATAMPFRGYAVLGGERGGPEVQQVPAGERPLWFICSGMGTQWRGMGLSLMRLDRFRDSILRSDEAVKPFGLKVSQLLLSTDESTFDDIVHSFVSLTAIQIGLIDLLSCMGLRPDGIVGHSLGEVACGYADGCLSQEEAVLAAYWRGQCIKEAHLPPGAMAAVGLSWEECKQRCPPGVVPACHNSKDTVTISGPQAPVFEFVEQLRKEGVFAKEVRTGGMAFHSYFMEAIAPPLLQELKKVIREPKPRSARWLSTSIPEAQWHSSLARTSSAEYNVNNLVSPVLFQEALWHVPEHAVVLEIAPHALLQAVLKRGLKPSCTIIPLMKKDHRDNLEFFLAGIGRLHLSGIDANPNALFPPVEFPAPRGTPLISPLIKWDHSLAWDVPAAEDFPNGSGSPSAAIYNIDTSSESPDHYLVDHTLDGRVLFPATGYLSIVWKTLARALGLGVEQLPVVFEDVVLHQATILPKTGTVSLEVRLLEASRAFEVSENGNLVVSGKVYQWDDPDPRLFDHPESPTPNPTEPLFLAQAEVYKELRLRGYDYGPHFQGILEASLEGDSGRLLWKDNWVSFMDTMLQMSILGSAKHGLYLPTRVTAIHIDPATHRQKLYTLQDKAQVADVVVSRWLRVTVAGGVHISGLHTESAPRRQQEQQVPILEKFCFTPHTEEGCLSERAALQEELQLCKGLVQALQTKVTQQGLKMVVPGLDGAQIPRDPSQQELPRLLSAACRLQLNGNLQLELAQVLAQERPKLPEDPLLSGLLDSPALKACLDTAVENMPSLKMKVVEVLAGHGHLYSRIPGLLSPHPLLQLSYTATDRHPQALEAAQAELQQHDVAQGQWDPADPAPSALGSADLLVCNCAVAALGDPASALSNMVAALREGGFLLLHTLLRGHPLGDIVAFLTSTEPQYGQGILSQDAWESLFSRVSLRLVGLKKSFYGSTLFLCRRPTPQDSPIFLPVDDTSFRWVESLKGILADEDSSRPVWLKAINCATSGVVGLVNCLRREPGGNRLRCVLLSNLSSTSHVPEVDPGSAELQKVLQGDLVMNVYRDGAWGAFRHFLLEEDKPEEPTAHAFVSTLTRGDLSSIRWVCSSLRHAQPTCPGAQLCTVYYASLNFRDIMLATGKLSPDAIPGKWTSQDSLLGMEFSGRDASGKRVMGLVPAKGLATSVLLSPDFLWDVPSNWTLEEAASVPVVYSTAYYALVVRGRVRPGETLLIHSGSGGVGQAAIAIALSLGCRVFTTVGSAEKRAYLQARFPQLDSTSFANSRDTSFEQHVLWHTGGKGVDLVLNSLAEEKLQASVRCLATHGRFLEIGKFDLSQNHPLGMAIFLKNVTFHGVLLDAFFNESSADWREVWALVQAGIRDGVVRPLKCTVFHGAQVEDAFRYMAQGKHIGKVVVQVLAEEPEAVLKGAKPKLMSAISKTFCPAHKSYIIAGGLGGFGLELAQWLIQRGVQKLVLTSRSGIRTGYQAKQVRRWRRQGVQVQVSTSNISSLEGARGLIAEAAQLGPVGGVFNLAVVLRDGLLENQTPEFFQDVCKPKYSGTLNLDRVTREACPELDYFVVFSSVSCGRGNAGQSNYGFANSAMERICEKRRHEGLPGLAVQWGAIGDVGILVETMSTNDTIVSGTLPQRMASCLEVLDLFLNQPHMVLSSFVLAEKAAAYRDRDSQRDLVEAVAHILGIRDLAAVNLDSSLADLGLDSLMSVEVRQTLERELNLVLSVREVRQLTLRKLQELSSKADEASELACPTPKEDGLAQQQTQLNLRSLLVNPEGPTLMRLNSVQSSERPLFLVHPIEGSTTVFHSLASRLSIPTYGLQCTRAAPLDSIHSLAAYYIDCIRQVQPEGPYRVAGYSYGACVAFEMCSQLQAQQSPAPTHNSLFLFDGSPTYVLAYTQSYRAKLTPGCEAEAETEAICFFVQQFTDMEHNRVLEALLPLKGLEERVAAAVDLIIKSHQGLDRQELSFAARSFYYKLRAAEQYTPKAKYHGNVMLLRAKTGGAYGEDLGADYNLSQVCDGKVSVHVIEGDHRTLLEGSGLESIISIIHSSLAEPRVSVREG

SMILES	inhibition at 100 µM [%]
Cc1ccc(C(=O)N2CCC(c3ccc(C#N)cc3)CC2)cc1NC(=O)N[C@H]1CC[C@H](N)C1 [Example 318, 3-[(1S,3S)-3-aminocyclopentyl]-1-[5-[4-(4-cyanophenyl)piperidine-1-carbonyl]-2-methyl-phenyl]urea]	93.9
Cc1ccc(C(=O)N2CCC(c3ccc(C#N)cc3)CC2)cc1NC(=O)N[C@H]1CC[C@H](NS(C)(=O)=O)C1 [Example 320, 1-[5-[4-(4-cyanophenyl)piperidine-1-carbonyl]-2-methyl-phenyl]-3-[(1S,3S)-3-methanesulfonamidocyclopentyl]urea]	94.4
CC(=O)N[C@H]1CC[C@H](NC(=O)Nc2cc(C(=O)N3CCC(c4ccc(C#N)cc4)CC3)ccc2C)C1 [Example 321, N-[(1S,3S)-3-[[5-[4-(4-cyanophenyl)piperidine-1-carbonyl]-2-methyl-phenyl]carbamoylamino]cyclopentyl]acetamide]	96.7
Cc1ccc(C(=O)N2CCC(c3ccc(C#N)cc3)CC2)cc1NC(=O)N1CCN(S(C)(=O)=O)CC1 [Example 322, N-[5-[4-(4-cyanophenyl)piperidine-1-carbonyl]-2-methyl-phenyl]-4-methylsulfonyl-piperazine-1-carboxamide]	90.5
Cc1ccc(C(=O)N2CCC(c3ccc(C#N)cc3)CC2)cc1NC(=O)N[C@H]1CC[C@H](NS(=O)(=O)N(C)C)C1 [Example 323, 1-[5-[4-(4-cyanophenyl)piperidine-1-carbonyl]-2-methyl-phenyl]-3-[(1S,3S)-3-(dimethylsulfamoylamino)cyclopentyl]urea]	94
CCS(=O)(=O)N[C@H]1CC[C@H](NC(=O)Nc2cc(C(=O)N3CCC(c4ccc(C#N)cc4)CC3)ccc2C)C1 [Example 324, 3-[5-[4-(4-cyanophenyl)piperidine-1-carbonyl]-2-methyl-phenyl]-1-[(1S,3S)-3-(ethylsulfonylamino)cyclopentyl]urea]	97.1
Cc1ccc(C(=O)N2CCC(c3ccc(F)cc3)CC2)cc1NC(=O)NC(C)C [Example 325, 1-[5-[4-(4-fluorophenyl)piperidine-1-carbonyl]-2-methyl-phenyl]-3-propan-2-yl-urea]	72.6
CC(=O)NCCNC(=O)Nc1cc(C(=O)N2CCC(c3ccc(C(F)(F)F)cc3)CC2)ccc1C [Example 326, N-[2-[[2-methyl-5-[4-[4-(trifluoromethyl)phenyl]piperidine-1-carbonyl]phenyl]carbamoylamino]ethyl]acetamide]	91.8
Cc1ccc(C(=O)N2CCC(c3cccc(C#N)c3)CC2)cc1NC(=O)NC(C)C [Example 327, 1-[5-[4-(3-cyanophenyl)piperidine-1-carbonyl]-2-methyl-phenyl]-3-propan-2-yl-urea]	93.1
COc1ccc(C2CCN(C(=O)c3ccc(C)c(NC(=O)NC(C)C)c3)CC2)cc1 [Example 328, 1-[5-[4-(4-methoxyphenyl)piperidine-1-carbonyl]-2-methyl-phenyl]-3-propan-2-yl-urea]	86.7
CNC(=O)c1ccc(C2CCN(C(=O)c3ccc(C)c(NC(=O)NC(C)C)c3)CC2)cc1 [Example 329, N-methyl-4-[1-[4-methyl-3-(propan-2-ylcarbamoylamino)benzoyl]-4-piperidyl]benzamide]	84.3
CCOC(=O)N1CCN(C(=O)Nc2cc(C(=O)N3CCC(c4ccc(C#N)cc4)CC3)ccc2C)CC1 [Example 330, Ethyl 4-[[5-[4-(4-cyanophenyl)piperidine-1-carbonyl]-2-methyl-phenyl]carbamoyl]piperazine-1-carboxylate]	82.4
Cc1ccc(C(=O)N2CCC(c3ccc(C#N)cc3)CC2)cc1NC(=O)N1CCN(C(=O)C(C)C)CC1 [Example 331, N-[5-[4-(4-cyanophenyl)piperidine-1-carbonyl]-2-methyl-phenyl]-4-(2-methylpropanoyl)piperazine-1-carboxamide]	84.2
Cc1ccc(C(=O)N2CCC(c3ccc(C#N)cc3)CC2)cc1NC(=O)N1CCN(C(=O)N(C)C)CC1 [Example 332, N-[5-[4-(4-cyanophenyl)piperidine-1-carbonyl]-2-methyl-phenyl]-N′,N′-dimethyl-piperazine-1,4-dicarboxamide]	96.5
Cc1ccc(C(=O)N2CCC(c3ccc(C(F)(F)F)cc3)CC2)cc1NC(=O)NC1CCCN(C(=O)OC(C)(C)C)C1 (stereo not drawn) [Example 333, tert-butyl 3-[[2-methyl-5-[4-[4-(trifluoromethyl)phenyl]piperidine-1-carbonyl]phenyl]carbamoylamino]piperidine-1-carboxylate]	90.9
Cc1ccc(C(=O)N2CCC(c3ccc(C(F)(F)F)cc3)CC2)cc1NC(=O)NCCN(C)C [Example 334, 3-(2-dimethylaminoethyl)-1-[2-methyl-5-[4-[4-(trifluoromethyl)phenyl]piperidine-1-carbonyl]phenyl]urea]	92.6
Cc1ccc(C(=O)N2CCC(c3ccc(C#N)cc3)CC2)cc1NC(=O)NC1(C)CCS(=O)(=O)C1 (stereo not drawn) [Example 335, 1-[5-[4-(4-cyanophenyl)piperidine-1-carbonyl]-2-methyl-phenyl]-3-(3-methyl-1,1-dioxo-thiolan-3-yl)urea]	78.2

SMILES	inhibition at 100 µM [%]
Cc1ccc(C(=O)N2CCC(c3ccc(C(F)(F)F)cc3)CC2)cc1NC(=O)NCCNC(=O)OC(C)(C)C [Example 336, tert-butyl N-[2-[[2-methyl-5-[4-[4-(trifluoromethyl)phenyl]piperidine-1-carbonyl]phenyl]carbamoylamino]ethyl]carbamate]	86.9
Cc1ccc(C(=O)N2CCC(c3ccc(C(F)(F)F)cc3)CC2)cc1NC(=O)NC1CCCNC1 (stereo not drawn) [Example 337, 1-[2-methyl-5-[4-[4-(trifluoromethyl)phenyl]piperidine-1-carbonyl]phenyl]-3-(3-piperidyl)urea]	90.1
CC(=O)NCCNC(=O)Nc1cc(C(=O)N2CCC(c3ccc(F)cc3)CC2)ccc1C [Example 338, N-[2-[[5-[4-(4-fluorophenyl)piperidine-1-carbonyl]-2-methyl-phenyl]carbamoylamino]ethyl]acetamide]	81.3
Cc1ccc(C(=O)N2CCC(c3ccc(F)cc3)CC2)cc1NC(=O)NC1CN(C(=O)OC(C)(C)C)C1 [Example 339, tert-butyl 3-[[5-[4-(4-fluorophenyl)piperidine-1-carbonyl]-2-methyl-phenyl]carbamoylamino]azetidine-1-carboxylate]	81.3
Cc1ccc(C(=O)N2CCC(c3ccc(C(F)(F)F)cc3)CC2)cc1NC(=O)NCCNS(=O)(=O)N(C)C [Example 340, 3-[2-(dimethylsulfamoylamino)ethyl]-1-[2-methyl-5-[4-[4-(trifluoromethyl)phenyl]piperidine-1-carbonyl]phenyl]urea]	96
Cc1ccc(C(=O)N2CCC(c3ccc(C(F)(F)F)cc3)CC2)cc1NC(=O)NCCNS(C)(=O)=O [Example 341, 3-(2-methanesulfonamidoethyl)-1-[2-methyl-5-[4-[4-(trifluoromethyl)phenyl]piperidine-1-carbonyl]phenyl]urea]	95.4
Cc1ccc(C(=O)N2CCC(c3ccc(C(F)(F)F)cc3)CC2)cc1NC(=O)NCCN [Example 342, 3-(2-aminoethyl)-1-[2-methyl-5-[4-[4-(trifluoromethyl)phenyl]piperidine-1-carbonyl]phenyl]urea]	82.8
Cc1ccc(C(=O)N2CCC(c3ccc(F)cc3)CC2)cc1NC(=O)NC1CCN(C(=O)OC(C)(C)C)C1 (stereo not drawn) [Example 343, tert-butyl 3-[[5-[4-(4-fluorophenyl)piperidine-1-carbonyl]-2-methyl-phenyl]carbamoylamino]pyrrolidine-1-carboxylate]	93.6
Cc1ccc(C(=O)N2CCC(c3ccc(C#N)cc3)CC2)cc1NC(=O)N1CCC(S(C)(=O)=O)C1 (stereo not drawn) [Example 344, N-[5-[4-(4-cyanophenyl)piperidine-1-carbonyl]-2-methyl-phenyl]-3-methylsulfonyl-pyrrolidine-1-carboxamide]	112
Cc1ccc(C(=O)N2CCC(c3ccc(C#N)cc3)CC2)cc1NC(=O)N1CC(O)C1 [Example 345, N-[5-[4-(4-cyanophenyl)piperidine-1-carbonyl]-2-methyl-phenyl]-3-hydroxy-azetidine-1-carboxamide]	96.5
Cc1ccc(C(=O)N2CCC(c3ccc(C#N)cc3)CC2)cc1NC(=O)N1CCC1 [Example 346, N-[5-[4-(4-cyanophenyl)piperidine-1-carbonyl]-2-methyl-phenyl]azetidine-1-carboxamide]	75.5
Cc1ccc(C(=O)N2CCC(c3ccc(F)cc3)CC2)cc1NC(=O)NCCN(C)C(=O)OC(C)(C)C [Example 347, tert-butyl N-[2-[[5-[4-(4-fluorophenyl)piperidine-1-carbonyl]-2-methyl-phenyl]carbamoylamino]ethyl]-N-methyl-carbamate]	86.3
CC(=O)N1CCC(NC(=O)Nc2cc(C(=O)N3CCC(c4ccc(F)cc4)CC3)ccc2C)C1 (stereo not drawn) [Example 348, 3-(1-acetylpyrrolidin-3-yl)-1-[5-[4-(4-fluorophenyl)piperidine-1-carbonyl]-2-methyl-phenyl]urea]	84.5
Cc1ccc(C(=O)N2CCC(c3ccc(F)cc3)CC2)cc1NC(=O)NC1CCNC1 (stereo not drawn) [Example 349, 1-[5-[4-(4-fluorophenyl)piperidine-1-carbonyl]-2-methyl-phenyl]-3-pyrrolidin-3-yl-urea]	88.7
Cc1ccc(C(=O)N2CCC(O)(c3ccc(Cl)cc3)CC2)cc1NC(=O)NC(C)C [Example 350, 1-[5-[4-(4-chlorophenyl)-4-hydroxy-piperidine-1-carbonyl]-2-methyl-phenyl]-3-propan-2-yl-urea]	71.4
Cc1ccc(C(=O)N2CCC(c3ccc(F)cc3)CC2)cc1NC(=O)NCCN(C)S(C)(=O)=O [Example 351, 1-[5-[4-(4-fluorophenyl)piperidine-1-carbonyl]-2-methyl-phenyl]-3-[2-(methyl-methylsulfonyl-amino)ethyl]urea]	88.9
